Measured values reported in patent US6030960A, “Method of treating hepatitis virus infections” (priority 1998, dated 2000).
“And” between values parts separate entries of the source, which are not always exact repeats. Identical values can stand only once. Like-named read-outs stand apart in the source and are kept apart here.

Tests used:
Assay type in all cases: cell-based
[1] = Cytotoxicity in HBV persistently infected human HEP G2 cells, neutral red dye uptake (Table 5); settings: human, hep-g2 cells
From the text: (§1) Initially, evaluations of the alkyl lipids were done to determine whether the compounds were cytotoxic to the cells at concentrations having anti-HBV activity. The assay methodology is szt forth in Korba and Germ, Antiviral Res., 19, 55-70 (1992), incorporated by reference herein. Briefly, these cell cytotoxicity evaluations were done in 96-well plates seeded with HEP-G2 cell monolayers. The hepatoblastoma cell line HEP-G2 transfected with a plasmid carrying the gene that confers resistance to […] and four 5'-3' tandem copies of the Hepatitis B virus genome was obtained from Dr. George Acs. Proc. Natl. Acad. Sci. USA, 84, 1005-1009 (1987). Serial concentrations of compound were added to the RPMI-1640 growth medium and the growth medium was added to the 96-well plates containing the cell monolayers. The cells were incubated for a total of nine days at 37° C. The compound-containing medium was periodically replaced. Each compound was tested at four serial concentrations in triplicate. After nine days of treatment and incubation, 0.01% neutral red dye (Sigma, Inc.) was added to the overlay medium. Cell cytotoxicity was quantitated by measuring the average A510. Values in Table 1 represent the percentage of average A510 values (±standard deviation) relative to nine non-treated control wells.
(§2) An analysis was periormed to determine the cytotoxicity of the following compounds in human HEP-G2 cells persistently infected with HBV: CP-51, CP-49, CP-9, CP-126, lyso PAF and CP-7. 2'-3'-Dideoxycytidine (ddC) was used as a control in this cytotoxicity analysis. The toxicity analyses were performed in 96-well flat bottomed tissue culture plates following the same procedure set forth in Example 6 above. Each compound was tested at four concentrations, each in triplicate cultures. Uptake of neutral red dye was used to determine the relative level of toxicity. The absorbance of internalized dye at […] (A510) was used for the quantitative analysis.
(§3) Values are presented as a percentage of the average A510 values (± standard deviations) in ninz separate cultures of untreated cells maintained on the same 96-well plate as the test compounds. The percentage of dye uptake in the nine control cultures was 100±1.

[2] = test system: HEP G2 cells persistently infected with HBV; assay: as above
From the text: as §1, §2, §3

[3] = test system: Hepatitis B virus; assay: Effect on synthesis of antigen markers in persistently infected human HEP G2 cell cultures (Table 7); settings: for Relative Level of HBeAg / Relative Level of HBsAg / Relative Level of Virion DNA / activity at 10 µM: nine days; for Relative Level of HBeAg / Relative Level of HBsAg / Relative Level of Virion DNA: 12960 min; for activity at 10 µM: Hepatitis B virus, HepG2, 216 h; for effect on HBsAg levels released into the culture medium / reduction in HBeAg and virion DNA levels: in words
Procedure: Cells were treated with compound for nine days at 37° C. The overlay medium was harvested to measure levels of HBsAg, HBeAg and virion DNA. HBsAg and HBeAg were assayed by EIA (Abbott Laboratories). Virion DNA levels were measured as described in section B above.

[4] = test system: Hepatitis B virus; assay: Effect of alkyl lipids on HBV replication in HBV persistently infected human HEP G2 cells (Table 6); settings: for Intracellular HBV DNA, Mono (episomal 3.2-3.8 Kb HBV genomes) / Intracellular HBV DNA, RI (replication intermediates): nine days; for inhibition of HBV replication: in words
Procedure: Cells were treated with a particular compound for nine days at 37° C. Analysis of intracellular HEIV DNA was done 24 hours following the ninth day of treatment. […] The levels of integrated HBV DNA in each cellular DNA preparation were used to calculate the levels of episomal 3.2-3.8 Kb HBV genomes (Mono) and HBV DNA replication intermediates (RI). A zero value indicates an undetectable level of HBV virion DNA. The sensitivity cut-off was 0.1 pg DNA/ml of culture medium.

[5] = 10 μM, Day 9, 0 = undetectable, cut-off 0.1 pg DNA/ml
[6] = % of Control Neutral Red Dye Uptake

Row | SMILES | Relative Level of HBeAg ([3]; 10 μM) | Relative Level of HBsAg ([3]; 10 μM) | Relative Level of Virion DNA ([3]; 10 μM) | effect on HBsAg levels released into the culture medium [3] | reduction in HBeAg and virion DNA levels [3] | HBV Virion DNA ([4]; 1 μM, Day 0) | HBV Virion DNA ([4]; 1 μM, Day 3) | HBV Virion DNA ([4]; 1 μM, Day 6) | HBV Virion DNA ([4]; 1 μM, Day 9) | Intracellular HBV DNA, Mono (episomal 3.2-3.8 Kb HBV genomes) ([4]; 1 μM) | Intracellular HBV DNA, RI (replication intermediates) ([4]; 1 μM) | HBV Virion DNA ([4]; 10 μM, Day 0) | HBV Virion DNA ([4]; 10 μM, Day 3) | HBV Virion DNA ([4]; 10 μM, Day 6) | HBV Virion DNA [4, 5] | Intracellular HBV DNA, Mono (episomal 3.2-3.8 Kb HBV genomes) ([4]; 10 μM) | Intracellular HBV DNA, RI (replication intermediates) ([4]; 10 μM) | inhibition of HBV replication [4] | also measured
1 | CCCCCCCCCCCCOCC(COP(=O)(O)OC[C@H]1O[C@@H](n2cc(C)c(=O)[nH]c2=O)C[C@@H]1N=[N+]=[N-])OCCCCCCCCCC (mixture of isomers) [CP-126, 3'-Azido-3'-deoxy-5'-(rac-3-dodecyloxy-2-decyloxy-1-propyl) phosphothymidine] | 42 % of Untreated Control | 69 % of Untreated Control | 14 % of Untreated Control | None of the compounds tested | caused a reduction | 67 pg/ml Culture Medium and 54 pg/ml Culture Medium and 70 pg/ml Culture Medium and 69 pg/ml Culture Medium | 49 pg/ml Culture Medium and 57 pg/ml Culture Medium and 65 pg/ml Culture Medium and 53 pg/ml Culture Medium | 40 pg/ml Culture Medium and 39 pg/ml Culture Medium and 44 pg/ml Culture Medium and 48 pg/ml Culture Medium | 28 pg/ml Culture Medium and 20 pg/ml Culture Medium and 22 pg/ml Culture Medium and 26 pg/ml Culture Medium | 2.3 pg/μg Cell DNA and 2.7 pg/μg Cell DNA and 2.1 pg/μg Cell DNA and 1.8 pg/μg Cell DNA | 51 pg/μg Cell DNA and 67 pg/μg Cell DNA and 56 pg/μg Cell DNA and 61 pg/μg Cell DNA | 60 pg/ml Culture Medium and 62 pg/ml Culture Medium and 59 pg/ml Culture Medium and 51 pg/ml Culture Medium | 59 pg/ml Culture Medium and 50 pg/ml Culture Medium and 55 pg/ml Culture Medium and 66 pg/ml Culture Medium | 20 pg/ml Culture Medium and 21 pg/ml Culture Medium and 26 pg/ml Culture Medium and 29 pg/ml Culture Medium | 13 pg/ml Culture Medium and 8 pg/ml Culture Medium and 9 pg/ml Culture Medium and 12 pg/ml Culture Medium | 1.9 pg/μg Cell DNA and 2.5 pg/μg Cell DNA and 2.0 pg/μg Cell DNA and 2.3 pg/μg Cell DNA | 14 pg/μg Cell DNA and 9 pg/μg Cell DNA and 12 pg/μg Cell DNA and 16 pg/μg Cell DNA | moderately inhibitory of HBV replication | viability at 216 h, 3 µM ([1]; Trial 2, 3 μM, read-out: % of Control Neutral Red Dye Uptake): 100 ± 1%; viability at 216 h, 10 µM ([1]; Trial 2, 10 μM, read-out: % of Control Neutral Red Dye Uptake): 97 ± 3%; viability at 216 h, 30 µM ([1]; Trial 2, 30 μM, read-out: % of Control Neutral Red Dye Uptake): 68 ± 1%; viability at 216 h, 100 µM ([1]; Trial 2, 100 μM, read-out: % of Control Neutral Red Dye Uptake): 20 ± 2%; Cell toxicity (greater than 50% depression of dye uptake) ([2]; at concentrations with strong or moderate antiviral activity): did not occur; activity at 10 µM ([3]; read-out: Relative Level of HBeAg, 10 μM): 35%; activity at 10 µM ([3]; read-out: Relative Level of HBsAg, 10 μM): 65%; activity at 10 µM ([3]; read-out: Relative Level of Virion DNA, 10 μM): 10%; HBV Virion DNA ([4]; 0.1 μM, Day 0): 50 pg/ml Culture Medium and 52 pg/ml Culture Medium and 54 pg/ml Culture Medium and 60 pg/ml Culture Medium; HBV Virion DNA ([4]; 0.1 μM, Day 3): 77 pg/ml Culture Medium and 79 pg/ml Culture Medium and 67 pg/ml Culture Medium and 65 pg/ml Culture Medium; HBV Virion DNA ([4]; 0.1 μM, Day 6): 61 pg/ml Culture Medium and 72 pg/ml Culture Medium and 83 pg/ml Culture Medium and 66 pg/ml Culture Medium; HBV Virion DNA ([4]; 0.1 μM, Day 9): 78 pg/ml Culture Medium and 64 pg/ml Culture Medium and 82 pg/ml Culture Medium and 77 pg/ml Culture Medium; Intracellular HBV DNA, Mono (episomal 3.2-3.8 Kb HBV genomes) ([4]; 0.1 μM): 2.2 pg/μg Cell DNA and 2.6 pg/μg Cell DNA and 2.4 pg/μg Cell DNA; Intracellular HBV DNA, RI (replication intermediates) ([4]; 0.1 μM): 64 pg/μg Cell DNA and 54 pg/μg Cell DNA and 70 pg/μg Cell DNA and 89 pg/μg Cell DNA
2 | CCCCCCCCCCCCCCCCSCCOP(=O)([O-])OCC[N+](C)(C)C [CP-9, 2-hexadecylthio-1-ethylphosphocholine] | 57 % of Untreated Control | 64 % of Untreated Control | 16 % of Untreated Control | None of the compounds tested | caused a reduction | 59 pg/ml Culture Medium and 53 pg/ml Culture Medium and 60 pg/ml Culture Medium and 58 pg/ml Culture Medium and 50 pg/ml Culture Medium and 55 pg/ml Culture Medium and 65 pg/ml Culture Medium | 66 pg/ml Culture Medium and 60 pg/ml Culture Medium and 82 pg/ml Culture Medium and 55 pg/ml Culture Medium and 52 pg/ml Culture Medium and 64 pg/ml Culture Medium and 90 pg/ml Culture Medium and 63 pg/ml Culture Medium | 57 pg/ml Culture Medium and 52 pg/ml Culture Medium and 88 pg/ml Culture Medium and 78 pg/ml Culture Medium and 83 pg/ml Culture Medium and 91 pg/ml Culture Medium and 64 pg/ml Culture Medium | 69 pg/ml Culture Medium and 71 pg/ml Culture Medium and 94 pg/ml Culture Medium and 76 pg/ml Culture Medium and 80 pg/ml Culture Medium and 92 pg/ml Culture Medium | 2.1 pg/μg Cell DNA and 2.6 pg/μg Cell DNA and 2.3 pg/μg Cell DNA and 2.0 pg/μg Cell DNA and 2.2 pg/μg Cell DNA and 2.4 pg/μg Cell DNA | 53 pg/μg Cell DNA and 82 pg/μg Cell DNA and 67 pg/μg Cell DNA and 60 pg/μg Cell DNA and 54 pg/μg Cell DNA and 64 pg/μg Cell DNA and 66 pg/μg Cell DNA | 60 pg/ml Culture Medium and 66 pg/ml Culture Medium and 61 pg/ml Culture Medium and 52 pg/ml Culture Medium | 52 pg/ml Culture Medium and 68 pg/ml Culture Medium and 57 pg/ml Culture Medium and 60 pg/ml Culture Medium | 33 pg/ml Culture Medium and 40 pg/ml Culture Medium and 39 pg/ml Culture Medium and 41 pg/ml Culture Medium | 10 pg/ml Culture Medium and 14 pg/ml Culture Medium and 11 pg/ml Culture Medium | 2.3 pg/μg Cell DNA and 2.2 pg/μg Cell DNA | 13 pg/μg Cell DNA and 14 pg/μg Cell DNA and 17 pg/μg Cell DNA and 12 pg/μg Cell DNA | moderately inhibitory of HBV replication | viability at 216 h, 3 µM [1, 6]: 100 ± 1%; viability at 216 h, 10 µM [1, 6]: 99 ± 2%; viability at 216 h, 30 µM [1, 6]: 86 ± 2%; viability at 216 h, 100 µM [1, 6]: 45 ± 2%; Cell toxicity (greater than 50% depression of dye uptake) [2]: did not occur; activity at 10 µM ([3]; 10 μM, read-out: Relative Level of HBeAg): 53%; activity at 10 µM ([3]; 10 μM, read-out: Relative Level of HBsAg): 68%; activity at 10 µM ([3]; 10 μM, read-out: Relative Level of Virion DNA): 13%
